# Measurements taken from paper PMC12058161, “The plant matrix of Artemisia annua L. for the treatment of malaria: Pharmacodynamic and pharmacokinetic studies” (PLOS One, 2025).
# Several values for one entry are separate records, joined by “and”; a condition that tells them apart may be missing. Identical values can stand only once.
# Legend:
# [1] = tested on: Caco-2 cells; test: Cytotoxicity in Caco-2 cells, CCK-8 assay; assay type: cell-based, human; details: for Cell survival rate%: mean; for cck-8 mean (survival fraction): mean of 6
# Experimental: Caco-2 cells were cultured in 96-well plates for 48 h at a seeding density of 5.0 × 10^3 cells/well before the addition of drugs. […] The final concentration of DMSO was 0.05% (v/v). Experiments were initiated by replacing the culture medium in each well with 100 μL of sample solutions at 37°C in the CO2 incubator. After 48 h of incubation, the medium was removed and 10 μL of CCK-8 reagent in the serum-free medium was added to each well. The plates were then incubated at 37°C for another 2 h. At the end of the incubation period, the plates were quantified by reading the absorbance at 450 nm on a micro-plate multi-detection instrument, SpectraMax iD3 with SoftMax® Pro (Molecular Devices Corporation Sunnyvale, CA, USA). The percentage of cell viability was calculated based on the absorbance measured relative to the absorbance of cells exposed to the negative control.
# [2] = target: T1, P-glycoprotein (P-gp) (Homo sapiens, UniProt P08183); test: Rhodamine 123 (P-gp substrate) transport across drug-treated Caco-2 cell monolayers; assay type: cell-based; details: co-incubated with R123, 10 μM, Caco-2 monolayer, Fig 6
# T1 construct: The transport of R123 in normal Caco-2 cell monolayers or drug-treated Caco-2 cell monolayers was further studied; host or cells: Caco-2
# T1 sequence (P08183 whole entry): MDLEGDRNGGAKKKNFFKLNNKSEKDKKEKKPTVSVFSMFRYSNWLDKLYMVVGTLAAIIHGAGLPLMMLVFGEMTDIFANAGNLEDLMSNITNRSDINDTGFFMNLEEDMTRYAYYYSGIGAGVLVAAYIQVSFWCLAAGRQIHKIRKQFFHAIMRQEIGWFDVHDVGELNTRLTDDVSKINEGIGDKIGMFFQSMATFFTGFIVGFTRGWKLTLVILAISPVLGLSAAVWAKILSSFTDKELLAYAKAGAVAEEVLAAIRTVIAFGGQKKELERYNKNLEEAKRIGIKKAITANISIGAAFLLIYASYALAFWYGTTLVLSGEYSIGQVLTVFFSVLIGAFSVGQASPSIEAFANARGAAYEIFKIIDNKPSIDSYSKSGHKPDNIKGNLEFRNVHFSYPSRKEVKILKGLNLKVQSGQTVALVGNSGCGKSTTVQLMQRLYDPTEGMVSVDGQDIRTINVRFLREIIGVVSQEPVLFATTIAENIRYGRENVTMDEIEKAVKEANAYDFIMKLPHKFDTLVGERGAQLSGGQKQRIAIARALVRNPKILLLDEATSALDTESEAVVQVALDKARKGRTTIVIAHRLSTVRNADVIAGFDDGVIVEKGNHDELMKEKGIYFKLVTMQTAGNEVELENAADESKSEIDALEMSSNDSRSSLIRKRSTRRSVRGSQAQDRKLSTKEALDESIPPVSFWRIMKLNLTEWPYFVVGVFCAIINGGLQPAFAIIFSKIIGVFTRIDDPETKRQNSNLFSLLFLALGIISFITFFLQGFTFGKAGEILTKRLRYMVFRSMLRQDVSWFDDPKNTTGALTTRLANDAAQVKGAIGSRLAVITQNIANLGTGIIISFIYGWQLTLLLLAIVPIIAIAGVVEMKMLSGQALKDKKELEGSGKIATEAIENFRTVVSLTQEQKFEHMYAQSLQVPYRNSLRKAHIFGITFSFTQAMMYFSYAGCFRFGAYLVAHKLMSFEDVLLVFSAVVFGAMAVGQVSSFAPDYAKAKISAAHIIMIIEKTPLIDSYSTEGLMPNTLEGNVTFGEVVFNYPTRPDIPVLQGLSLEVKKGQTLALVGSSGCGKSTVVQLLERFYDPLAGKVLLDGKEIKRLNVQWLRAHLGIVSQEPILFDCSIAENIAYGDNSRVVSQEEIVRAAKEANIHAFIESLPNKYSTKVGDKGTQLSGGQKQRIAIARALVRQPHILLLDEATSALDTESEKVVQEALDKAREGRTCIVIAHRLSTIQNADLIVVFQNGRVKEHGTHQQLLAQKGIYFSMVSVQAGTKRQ
# Text: The human epithelial cell line Caco-2 serves as a widely recognized model for the intestinal epithelial barrier, frequently utilized in the assessment of drug absorption and transport mechanisms. In this study, we evaluated drug absorption and distribution in vitro with the help of the Caco-2 cell model. Caco-2 cells were purchased from the Chinese Academy of Medical Sciences (Beijing, China, Resource No. 3111C0001CCC000100). The cells were resuscitated and inserted into culture flasks. Caco-2 cells were passaged with DMEM high glucose medium containing 10% (V/V) FBS, 1% (V/V) non-essential amino acid solution and 100 U/mL penicillin-streptomycin double antibiotic solution, and cultured at 37°C in a 5% CO2 incubator. […] The integrity of the cell monolayer was checked by measuring the transmembrane electrical resistance (TEER) of the monolayer cells with a Millicell-ERS electrode (Millipore Corp., Billerica, MA, USA). Caco-2 cells were used for transport experiments 17–21 days after inoculation. Besides, only monolayers with TEER values above 400 Ω/cm^2 were used in the study.
# The transport of R123 in normal Caco-2 cell monolayers or drug-treated Caco-2 cell monolayers was further studied. […] The transport buffer containing 5 μM of R123 was added on either the AP or the BL side of the inserts, as described above. […] The concentrations of R123 were immediately analyzed by SpectraMax iD3. The excitation wavelength was set at 485 nm, and the emission wavelength at 535 nm. Papp values across the cell monolayers were calculated according to the equation: Papp = dQ/dt × 1/(A × C0), where dQ/dt represents the rate of drug transport. […] The efflux ratio was calculated using the Papp (BL-AP) to Papp (AP-BL) ratio.
# [3] = Stability of the five compounds in SD rat plasma (QC samples, UHPLC-ESI-MS/MS); assay type: in vitro ADME; details: for mean measured concentration: rat plasma, mean of 5; for stability, Accuracy (measured versus nominal concentration) / stability, mean ± SD (measured concentration): SD rat plasma, n=5
# Experimental: The method was validated according to the US Food and Drug Administration (FDA) Bioanalytical Method Validation Guidance as follows: [1] specificity was assessed by analyzing blank plasma, blank plasma spiked with standard solutions and rat plasma samples after oral administration. Each calibration curve was plotted using the concentration of the standard solution as the horizontal coordinate and the ratio of analyte to internal standard peak area as the vertical coordinate. The lower limit of quantification (LLOQ) refers to the lowest concentration, which is typically 10 times the signal-to-noise ratio. It has an acceptable accuracy of ± 20% and a precision of less than 20% [3]. Quality Control (QC) samples (low, medium and high concentrations) were prepared for each analyte. Five samples were analyzed at each concentration level and three consecutive batches were determined to calculate the accuracy and precision of the method. Extraction recovery was assessed by the ratio of the average peak area of routinely prepared QC samples (low, medium, and high concentrations) to the post-extraction plasma sample. Likewise, matrix effect was assessed by the ratio of peak areas between post-extraction samples spiked with analytes and mobile phases spiked with the same concentration of analytes.
# [4] = male, Sprague Dawley, rat, in vivo, po, 352 mg/kg
# Experimental: (§1) Blood samples were centrifuged at 3500 rpm for 5 min at 4°C. All plasma samples were then stored at -80°C until analysis.
# (§2) All samples were stored in a refrigerator at -80°C and thawed at room temperature before processing. A 50 μL aliquot of plasma was added with 5 μL of the standard solution (or acetonitrile) and 100 μL of internal standard solution in turn, vortexed and mixed, then sonicated for 3 min, centrifuged at 14000 rpm for 10 min at low temperature. The supernatant was transferred to an autosampler vial and analyzed by UHPLC-ESI-MS/MS.
# (§3) The mobile phase consisted of 0.1% formic acid solution (A) and acetonitrile (B).
# (§4) The ESI ionization source was used and detected in MRM mode.
# (§5) All data were presented as mean ± SD. Pharmacokinetic parameters including half-life (t1/2), maximum plasma time (Tmax) and concentration (Cmax), area under concentration-time curve (AUC0-t and AUC0-∞), clearance (CL), steady-state volume of distribution (Vz), and mean residence time (MRT) were analyzed by non-compartmental method using DAS Version 2.0 (Chinese Pharmacological Society, Beijing, China). […] The data were analyzed by Student’s t-test for two groups and one-way analysis of variance for multiple groups; p < 0.05 was considered statistically significant.
# [5] = in vivo; details: male, Sprague Dawley, rat, po, 352 mg/kg
# Experimental: as §1, §2, §3, §4, §5
# [6] = Caco-2, concentration 10 μmol/L
# [7] = Caco-2, concentration 20 μmol/L
# [8] = Caco-2, concentration 40 μmol/L
# [9] = Caco-2, concentration 80 μmol/L
# [10] = nominal 160 ng/mL, 3 freeze-thaw cycles
# [11] = nominal 160 ng/mL, 7 days at -80°C
# [12] = nominal 160 ng/mL, Room temperature 24h
# [13] = nominal 1000 ng/mL, 3 freeze-thaw cycles
# [14] = nominal 1000 ng/mL, 7 days at -80°C
# [15] = nominal 1000 ng/mL, Room temperature 24h
# [16] = nominal 5000 ng/mL, 3 freeze-thaw cycles
# [17] = nominal 5000 ng/mL, 7 days at -80°C
# [18] = nominal 5000 ng/mL, Room temperature 24h
compound,measurement,setting,value
"C=C(C(=O)O)[C@@H]1CC[C@@H](C)[C@@H]2CCC(C)=C[C@@H]21 [AA, Artemisinic acid]","Cell survival rate%, single replicate","[1]; Caco-2, 5μmol/L",86.78% and 81.42% and 81.32% and 82.7% and 86.07% and 80.23%
same,"Cell survival rate%, single replicate","[1]; Caco-2, 10μmol/L",83.23% and 82.76% and 85.19% and 84.02% and 81.01% (2×)
same,"Cell survival rate%, single replicate","[1]; Caco-2, 20μmol/L",82.79% and 80.95% and 80.96% and 82.01% and 83.04% and 83.63%
same,"Cell survival rate%, single replicate","[1]; Caco-2, 40μmol/L",79.21% and 80.38% and 82.01% and 81.79% and 85.15% and 82.39%
same,"Cell survival rate%, single replicate","[1]; Caco-2, 80μmol/L",81.2% and 78.64% and 82.71% and 80.82% and 78.89% and 79.03%
same,"cck-8 cell survival as fraction, single replicate","[1]; Caco-2, concentration 5 μmol/L",0.8678 and 0.8142 and 0.8132 and 0.827 and 0.8607 and 0.8023
same,Cell survival rate%,"[1]; Caco-2, concentration 5 μmol/L",83.09%
same,cck-8 mean (survival fraction),"[1]; Caco-2, concentration 5 μmol/L",0.83
same,"cck-8 cell survival as fraction, single replicate",[1]; [6],0.8323 and 0.8276 and 0.8519 and 0.8402 and 0.8101
same,Cell survival rate%,[1]; [6],82.87%
same,cck-8 mean (survival fraction),[1]; [6],0.83
same,"cck-8 cell survival as fraction, single replicate",[1]; [7],0.8279 and 0.8095 and 0.8096 and 0.8201 and 0.8304 and 0.8363
same,Cell survival rate%,[1]; [7],82.23%
same,cck-8 mean (survival fraction),[1]; [7],0.82
same,"cck-8 cell survival as fraction, single replicate",[1]; [8],0.7921 and 0.8038 and 0.8201 and 0.8179 and 0.8515 and 0.8239
same,Cell survival rate%,[1]; [8],81.82%
same,cck-8 mean (survival fraction),[1]; [8],0.82
same,"cck-8 cell survival as fraction, single replicate",[1]; [9],0.812 and 0.7864 and 0.8271 and 0.8082 and 0.7889 and 0.7903
same,Cell survival rate%,[1]; [9],80.22%
same,cck-8 mean (survival fraction),[1]; [9],0.80
same,reduction of R123 transport from the BL side to the AP side,[2],26.82%
same,mean measured concentration,"[3]; AA QC 160ng, 3 freeze-thaw cycles",175.436 ng/mL
same,mean measured concentration,"[3]; AA QC 160ng, 7 days at -80°C",168.832 ng/mL
same,mean measured concentration,"[3]; AA QC 160ng, Room temperature 24h",151.908 ng/mL
same,mean measured concentration,"[3]; AA QC 1000ng, 3 freeze-thaw cycles",947.702 ng/mL
same,mean measured concentration,"[3]; AA QC 1000ng, 7 days at -80°C",919.418 ng/mL
same,mean measured concentration,"[3]; AA QC 1000ng, Room temperature 24h",955.778 ng/mL
same,mean measured concentration,"[3]; AA QC 5000ng, 3 freeze-thaw cycles",4777.45 ng/mL
same,mean measured concentration,"[3]; AA QC 5000ng, 7 days at -80°C",4737.9 ng/mL
same,mean measured concentration,"[3]; AA QC 5000ng, Room temperature 24h",4689.24 ng/mL
same,"stability, Accuracy (measured versus nominal concentration)",[3]; [10],109.65%
same,"stability, mean ± SD (measured concentration)",[3]; [10],175 ± 7.36 ng/mL
same,"stability, Accuracy (measured versus nominal concentration)",[3]; [11],105.52%
same,"stability, mean ± SD (measured concentration)",[3]; [11],169 ± 8.62 ng/mL
same,"stability, Accuracy (measured versus nominal concentration)",[3]; [12],94.94%
same,"stability, mean ± SD (measured concentration)",[3]; [12],152 ± 6.95 ng/mL
same,"stability, Accuracy (measured versus nominal concentration)",[3]; [13],94.77%
same,"stability, mean ± SD (measured concentration)",[3]; [13],948 ± 56.6 ng/mL
same,"stability, Accuracy (measured versus nominal concentration)",[3]; [14],91.94%
same,"stability, mean ± SD (measured concentration)",[3]; [14],919 ± 34.8 ng/mL
same,"stability, Accuracy (measured versus nominal concentration)",[3]; [15],95.58%
same,"stability, mean ± SD (measured concentration)",[3]; [15],956 ± 68.0 ng/mL
same,"stability, Accuracy (measured versus nominal concentration)",[3]; [16],95.55%
same,"stability, mean ± SD (measured concentration)",[3]; [16],4777 ± 82.6 ng/mL
same,"stability, Accuracy (measured versus nominal concentration)",[3]; [17],94.76%
same,"stability, mean ± SD (measured concentration)",[3]; [17],4738 ± 174 ng/mL
same,"stability, Accuracy (measured versus nominal concentration)",[3]; [18],93.78%
same,"stability, mean ± SD (measured concentration)",[3]; [18],4689 ± 298 ng/mL
same,CL,[4],0.001 ± 0.001 L/h
same,CLz,[4],24 mL/day/kg
same,AUC(0-inf),[5],23700 ± 4990 ng·h/mL
same,AUC(0-t),[5],23000 ± 4720 ng·h/mL
same,Cmax,[5]; Cmax,5370 ± 590 ng/mL
same,half-life,[5]; t1/2,4.29 ± 1.37 h
